Data published in the supplement of paper PMC10307832.

How the values were obtained:
Test in all cases: relative viability (nuclei count vs DMSO), 5 days (fraction); higher = more cells survive
EHT 1864 + Linsitinib = compound: C1COCCN1CC2=CC(=O)C(=CO2)OCCCCCSC3=C4C=CC(=CC4=NC=C3)C(F)(F)F [EHT 1864] + C[C@]1(O)C[C@@H](c2nc(-c3ccc4ccc(-c5ccccc5)nc4c3)c3c(N)nccn32)C1 [Linsitinib] (partner 1 µM)
In short: (§1)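 Cells from lung cancer lines were seeded into 1536-well plates and, one day later, dosed by pin tool. Treatments were either a single drug or a fixed dose of an anchor drug with five library-drug doses (not always all listed) in √10 steps. After 5 days, nuclei were stained in a one-step fixation (final 0.05% Triton X-100, 1% formaldehyde, 1 ug/ml Hoechst) and counted on 4× images, and relative viability is the treated-to-vehicle nuclei ratio, as the median of duplicate plates.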

EHT 1864 + Crizotinib = compound: C1COCCN1CC2=CC(=O)C(=CO2)OCCCCCSC3=C4C=CC(=CC4=NC=C3)C(F)(F)F [EHT 1864] + C[C@@H](Oc1cc(-c2cnn(C3CCNCC3)c2)cnc1N)c1c(Cl)ccc(F)c1Cl [Crizotinib] (partner 1 µM)
In short: as §1

EHT 1864 + Tozasertib = compound: C1COCCN1CC2=CC(=O)C(=CO2)OCCCCCSC3=C4C=CC(=CC4=NC=C3)C(F)(F)F [EHT 1864] + Cc1cc(Nc2cc(N3CCN(C)CC3)nc(Sc3ccc(NC(=O)C4CC4)cc3)n2)n[nH]1 [Tozasertib] (partner 0.1 µM)
In short: as §1

EHT 1864 + OSI-027 = compound: C1COCCN1CC2=CC(=O)C(=CO2)OCCCCCSC3=C4C=CC(=CC4=NC=C3)C(F)(F)F [EHT 1864] + COc1cccc2cc(-c3nc([C@H]4CC[C@H](C(=O)O)CC4)n4ncnc(N)c34)[nH]c12 [OSI-027] (partner 0.5 µM)
In short: as §1

Row | Cell Line | relative viability (EHT 1864 + Linsitinib; first compound 0.04 µM) | relative viability (EHT 1864 + Linsitinib; first compound 0.1265 µM) | relative viability (EHT 1864 + Linsitinib; first compound 0.4 µM) | relative viability (EHT 1864 + Linsitinib; first compound 1.265 µM) | relative viability (EHT 1864 + Linsitinib; first compound 4 µM) | relative viability (EHT 1864 + Crizotinib; first compound 0.04 µM) | relative viability (EHT 1864 + Crizotinib; first compound 0.1265 µM) | relative viability (EHT 1864 + Crizotinib; first compound 0.4 µM) | relative viability (EHT 1864 + Crizotinib; first compound 1.265 µM) | relative viability (EHT 1864 + Crizotinib; first compound 4 µM) | relative viability (EHT 1864 + Tozasertib; first compound 0.04 µM) | relative viability (EHT 1864 + Tozasertib; first compound 0.1265 µM) | relative viability (EHT 1864 + Tozasertib; first compound 0.4 µM) | relative viability (EHT 1864 + Tozasertib; first compound 1.265 µM) | relative viability (EHT 1864 + Tozasertib; first compound 4 µM) | relative viability (EHT 1864 + OSI-027; first compound 0.04 µM) | relative viability (EHT 1864 + OSI-027; first compound 0.1265 µM) | relative viability (EHT 1864 + OSI-027; first compound 0.4 µM) | relative viability (EHT 1864 + OSI-027; first compound 1.265 µM) | relative viability (EHT 1864 + OSI-027; first compound 4 µM)
1 | LU99A | 0.514 | 0.4 | 0.5 | 0.607 | 0.539 | 0.604 | 0.489 | 0.575 | 0.593 | 0.537 | 0.295 | 0.254 | 0.253 | 0.244 | 0.216 | 0.354 | 0.212 | 0.327 | 0.29 | 0.278
2 | NCI-H1355 | 0.781 | 0.667 | 0.718 | 0.72 | 0.77 | 1.12 | 0.875 | 1.06 | 1.07 | 1.03 | 0.558 | 0.452 | 0.582 | 0.391 | 0.464 | 0.417 | 0.289 | 0.409 | 0.397 | 0.396
3 | NCI-H520 | 0.917 | 0.998 | 0.747 | 0.813 | 0.913 | 0.657 | 0.599 | 0.642 | 0.733 | 0.804 | 0.377 | 0.376 | 0.388 | 0.483 | 0.377 | 0.266 | 0.25 | 0.247 | 0.24 | 0.224
4 | NCI-H661 | 0.603 | 0.516 | 0.535 | 0.512 | 0.449 | 1.03 | 1.03 | 0.882 | 0.85 | 0.879 | 0.385 | 0.335 | 0.355 | 0.33 | 0.379 | 0.735 | 0.587 | 0.659 | 0.711 | 0.597
5 | NCI-H650 | 0.94 |  | 1.01 | 0.947 | 0.884 | 0.71 |  | 0.805 | 0.7 | 0.698 | 0.671 | 0.667 | 0.708 | 0.642 | 0.722 | 0.53 | 0.354 | 0.546 | 0.531 | 0.49
6 | NCI-H647 | 1.03 | 1.13 | 1.2 | 1.15 | 0.983 | 1 | 0.922 | 0.903 | 0.992 | 0.911 | 0.218 | 0.169 | 0.414 | 0.175 | 0.132 | 0.622 | 0.368 | 0.598 | 0.738 | 0.621
7 | 201T | 1.08 | 1.05 | 1.08 | 0.925 | 1.03 | 1.05 | 1.03 | 1 | 0.984 | 1 | 0.916 | 0.912 | 0.983 | 0.853 | 0.864 | 0.762 | 0.549 | 0.623 | 0.572 | 0.744
8 | NCI-H838 | 0.977 | 0.889 | 1.08 | 1.05 | 1.01 | 0.74 | 0.724 | 0.911 | 0.826 | 0.802 | 0.244 | 0.227 | 0.26 | 0.241 | 0.223 | 0.371 | 0.313 | 0.395 | 0.376 | 0.425
9 | SW 1573 | 0.923 | 0.943 | 0.812 | 0.814 | 0.709 | 0.827 | 0.74 | 0.803 | 0.813 | 0.856 | 0.173 | 0.158 | 0.172 | 0.225 | 0.154 | 0.592 | 0.54 | 0.605 | 0.482 | 0.55
10 | PC-14 | 0.955 | 0.973 | 0.954 | 0.985 | 0.99 | 0.966 | 0.962 | 0.832 | 0.865 | 0.899 | 0.607 |  | 0.555 | 0.623 | 0.53 | 0.813 | 0.75 | 0.814 | 1.05 | 0.88
11 | LK-2 | 0.543 | 0.527 | 0.538 | 0.623 | 0.724 | 0.232 | 0.23 | 0.225 | 0.241 | 0.221 | 0.162 |  | 0.169 | 0.198 | 0.164 | 0.243 | 0.154 | 0.227 | 0.188 | 0.187
12 | COR-L23 | 0.94 | 0.921 | 0.942 | 0.949 | 0.873 | 0.684 | 0.559 | 0.59 | 0.552 | 0.596 | 0.248 | 0.176 | 0.21 | 0.131 | 0.155 | 0.821 | 0.467 | 0.647 | 0.796 | 0.747
13 | NCI-H2170 |  |  |  |  |  | 1.15 | 1.17 | 1.2 | 1.18 | 1.21 | 0.7 | 0.52 | 0.775 | 0.692 | 0.658 | 0.787 | 0.582 | 0.803 | 0.795 | 0.702
14 | NCI-H1650 |  |  |  |  |  | 0.857 | 0.653 | 0.947 | 0.911 | 1.15 |  |  | 0.385 | 0.355 | 0.242 |  |  | 0.599 | 0.638 | 0.611
15 | NCI-H1793 |  | 0.775 | 0.888 | 0.696 | 0.984 |  |  |  |  |  | 0.294 |  | 0.341 |  | 0.285 | 0.226 |  | 0.313 |  | 0.262
16 | NCI-H1563 | 1.17 | 1.3 | 1.24 | 1.17 | 0.94 | 0.89 | 0.883 | 0.916 | 0.827 | 0.656 |  |  |  |  |  | 0.735 | 0.796 | 0.763 | 0.701 | 0.699
17 | EBC-1 | 0.883 | 0.426 | 0.914 | 0.896 | 0.99 | 0.18 | 0.181 | 0.219 | 0.205 | 0.196 |  |  |  |  |  |  |  |  |  | 
18 | Calu-6 | 0.99 | 0.737 | 0.96 | 0.875 | 0.893 | 0.763 | 0.767 | 0.676 | 0.748 | 0.733 |  |  |  |  |  |  |  |  |  | 
